Data reported in patent publication US20080293782A1, “1,1,3-Trioxo-1,2,5-Thiadiazolidines and Their Use as Ptp-Ases Inhibitors” (priority 2005, published 2008).

Experiments:
human PTP-1B = target: T1, human PTP-1B (Homo sapiens, UniProt P18031); test: inhibitory activity (IC50) to human PTP-1B; format: biochemical
T1 construct: recombinant human PTP-1B[1-298] or PTP-1B[1-322]
T1 sequence (P18031 1-298 limits assumed): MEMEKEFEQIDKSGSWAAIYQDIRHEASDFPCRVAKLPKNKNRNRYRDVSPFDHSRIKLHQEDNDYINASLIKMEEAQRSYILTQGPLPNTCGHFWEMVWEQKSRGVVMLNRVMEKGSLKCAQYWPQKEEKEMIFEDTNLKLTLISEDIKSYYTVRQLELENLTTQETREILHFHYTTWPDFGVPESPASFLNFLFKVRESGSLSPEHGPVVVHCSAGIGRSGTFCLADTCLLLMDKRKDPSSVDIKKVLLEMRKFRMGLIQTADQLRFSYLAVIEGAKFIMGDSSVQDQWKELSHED
Experimental: For example, the PTP-1B inhibitory activity in vitro may be determined as follows:
Assessment of human PTP-1B (hPTP-1B) activity in the presence of various agents is determined by measuring the amount of inorganic phosphate released from a phosphopeptide substrate using a 96-well microtiter plate format. The assay (100 μL) is performed in an assay buffer comprised of 50 mM TRIS (pH 7.5), 50 mM NaCl, 3 mM DTT at ambient temperature. The assay is typically performed in the presence of 0.4% dimethyl sulfoxide (DMSO). However, concentrations as high as 10% are used with certain poorly soluble compounds. […] Inorganic phosphate, a product of the enzyme reaction, is quantitiated after 15 min as the green color resulting from complexing with the Malichite reagent and is determined as an A620 using a Molecular Devices (Sunnyvale, Calif.) SpectraMAX Plus spectrophotometer. […] Activity is defined as the net change in absorbance resulting from the activity of the uninhibited hPTP-1B[1-411] minus that of a tube with acid-inactivated hPTP-1B[1-411]. […]
Alternatively, the assessment of human PTP-1B activity in the presence of various agents may be determined by measuring the hydrolysis products of known competing substrates. […]

Row | Compound | IC50 (human PTP-1B) | melting point
1 | O=C1CN(c2cc(-c3cn[nH]c3)ccc2O)S(=O)(=O)N1 [Example No. 2-5, 5-[2-Hydroxy-5-(1H-pyrazol-4-yl)-phenyl]-1,1-dioxo-1,2,5-thiadiazolidin-3-one] | 80 nM | 
2 | N#CCCCn1cc(-c2ccc(O)c(N3CC(=O)NS3(=O)=O)c2)cn1 [Example No. 13-7, 4-{4-[4-Hydroxy-3-(1,1,4-trioxo-1,2,5-thiadiazolidin-2-yl)-phenyl]-1H-pyrazol-1-yl}-butyronitrile] | 86 nM | 
3 | O=C1CN(c2cc(Oc3ccccc3)ccc2O)S(=O)(=O)N1 [Example 14, 5-(2-Hydroxy-5-phenoxyphenyl)-1,1-dioxo-1,2,5-thiadiazolidin-3-one] |  | 153 to 157 °C
